Measurements: article PMC9334755 (Cancer Biology & Medicine, 2021)
Like-named read-outs stand apart in the source and are kept apart here.

What was measured:
[1] = system: spontaneous canine B-cell lymphoma; assay: Spontaneous canine B-cell lymphoma; assay type: in vivo, dog; parameters: key to Outcome: CR: complete response; PR: partial response; PD: progressive disease; SD: stable disease
Procedure: Dogs with spontaneous lymphoma were purchased from the China Agricultural University Veterinary Teaching Hospital, and the study was approved by the institutional animal care and use committee of Shouyao Holdings (approval No. CTA-2014003). The inclusion criterion was a confirmed histologic diagnosis of B-cell lymphoma (on the basis of immunohistochemistry for CD21 and CD79a). SY-1530 capsules (20–40 mg) were administered daily until disease progression. The dogs were re-examined every week for 4 weeks and subsequently biweekly. The sum of the longest diameters of all target lesions was defined as the tumor burden. According to the criteria for evaluation of the response of peripheral nodal lymphoma in dogs developed by the Veterinary Cooperative Oncology Group, the response was classified as complete response, partial response, progressive disease, or stable disease.

[2] = target: T1, BTK (Homo sapiens, UniProt Q06187); assay: HTRF assay of BTK activity; assay type: biochemical; settings: double reciprocal curve
T1 sequence (Q06187 whole entry): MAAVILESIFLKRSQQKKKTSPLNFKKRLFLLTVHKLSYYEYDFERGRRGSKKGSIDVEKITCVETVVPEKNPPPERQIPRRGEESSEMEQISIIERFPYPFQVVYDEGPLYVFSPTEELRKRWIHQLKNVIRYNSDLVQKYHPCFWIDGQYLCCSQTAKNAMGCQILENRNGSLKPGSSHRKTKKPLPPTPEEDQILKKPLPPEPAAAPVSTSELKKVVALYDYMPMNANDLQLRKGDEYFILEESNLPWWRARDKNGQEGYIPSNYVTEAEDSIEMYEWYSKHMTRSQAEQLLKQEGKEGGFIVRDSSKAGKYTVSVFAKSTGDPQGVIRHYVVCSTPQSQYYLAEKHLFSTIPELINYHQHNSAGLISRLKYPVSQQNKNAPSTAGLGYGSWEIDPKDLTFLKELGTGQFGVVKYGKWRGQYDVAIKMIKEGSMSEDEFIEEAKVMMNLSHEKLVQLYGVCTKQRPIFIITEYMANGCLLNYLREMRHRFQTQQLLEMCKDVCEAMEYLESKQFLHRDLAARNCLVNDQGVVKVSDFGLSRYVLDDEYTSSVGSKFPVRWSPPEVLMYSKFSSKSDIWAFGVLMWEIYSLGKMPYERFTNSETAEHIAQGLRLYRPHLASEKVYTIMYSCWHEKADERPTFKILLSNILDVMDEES

[3] = target: HCK (Homo sapiens, UniProt P08631); assay: Protein kinase panel at 1 µM, HCK; assay type: biochemical
[4] = target: LCK (Homo sapiens, UniProt P06239); assay: Protein kinase panel at 1 µM, LCK; assay type: biochemical
Sequence of LCK (P06239 whole entry): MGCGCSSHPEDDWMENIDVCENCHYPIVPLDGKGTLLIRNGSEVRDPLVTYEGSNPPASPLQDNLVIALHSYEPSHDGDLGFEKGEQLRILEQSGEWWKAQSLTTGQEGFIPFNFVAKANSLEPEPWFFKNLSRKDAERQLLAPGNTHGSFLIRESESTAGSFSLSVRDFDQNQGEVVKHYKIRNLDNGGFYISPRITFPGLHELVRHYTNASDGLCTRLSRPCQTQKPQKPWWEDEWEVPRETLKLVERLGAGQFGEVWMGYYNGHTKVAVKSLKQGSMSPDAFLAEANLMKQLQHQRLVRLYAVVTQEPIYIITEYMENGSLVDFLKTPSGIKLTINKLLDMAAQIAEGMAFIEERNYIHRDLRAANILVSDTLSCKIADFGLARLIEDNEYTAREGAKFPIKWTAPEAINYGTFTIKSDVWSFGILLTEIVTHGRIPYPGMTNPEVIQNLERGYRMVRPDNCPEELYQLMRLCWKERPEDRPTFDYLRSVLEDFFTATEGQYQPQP

[5] = human
[6] = target: EPHA3 (Homo sapiens, UniProt P29320); assay: Protein kinase panel at 1 µM, EPHA3; assay type: biochemical
Sequence of EPHA3 (P29320 21-983, species assumed): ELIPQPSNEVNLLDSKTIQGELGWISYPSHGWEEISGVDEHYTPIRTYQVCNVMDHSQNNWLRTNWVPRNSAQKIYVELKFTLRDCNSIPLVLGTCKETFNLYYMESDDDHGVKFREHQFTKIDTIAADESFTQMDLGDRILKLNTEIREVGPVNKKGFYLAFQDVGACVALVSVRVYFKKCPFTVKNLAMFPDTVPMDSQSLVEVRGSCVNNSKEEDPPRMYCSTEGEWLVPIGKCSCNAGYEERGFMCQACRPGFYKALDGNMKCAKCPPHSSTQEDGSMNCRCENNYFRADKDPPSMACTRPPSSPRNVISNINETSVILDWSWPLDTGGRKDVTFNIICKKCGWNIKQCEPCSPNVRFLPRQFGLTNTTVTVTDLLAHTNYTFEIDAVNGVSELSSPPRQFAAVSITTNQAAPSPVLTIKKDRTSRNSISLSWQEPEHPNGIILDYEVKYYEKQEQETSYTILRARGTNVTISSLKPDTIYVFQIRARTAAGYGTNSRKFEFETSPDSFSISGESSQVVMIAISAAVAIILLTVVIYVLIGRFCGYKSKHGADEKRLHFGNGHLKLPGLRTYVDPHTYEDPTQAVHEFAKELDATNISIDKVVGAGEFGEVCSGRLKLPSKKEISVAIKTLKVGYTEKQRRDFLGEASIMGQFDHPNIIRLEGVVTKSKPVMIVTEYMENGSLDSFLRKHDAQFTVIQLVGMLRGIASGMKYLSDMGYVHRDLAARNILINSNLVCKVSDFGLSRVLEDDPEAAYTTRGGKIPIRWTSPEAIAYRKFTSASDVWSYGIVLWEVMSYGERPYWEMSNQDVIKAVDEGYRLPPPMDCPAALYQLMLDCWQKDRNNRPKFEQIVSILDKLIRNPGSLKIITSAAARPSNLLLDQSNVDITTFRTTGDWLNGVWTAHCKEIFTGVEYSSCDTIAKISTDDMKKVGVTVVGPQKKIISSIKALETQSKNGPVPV

[7] = target: RET (Homo sapiens, UniProt P07949); assay: Protein kinase panel at 1 µM, RET; assay type: biochemical
[8] = monkey
[9] = target: ABL1 (Homo sapiens, UniProt P00519); assay: Protein kinase panel at 1 µM, ABL1; assay type: biochemical
Sequence of ABL1 (P00519 whole entry): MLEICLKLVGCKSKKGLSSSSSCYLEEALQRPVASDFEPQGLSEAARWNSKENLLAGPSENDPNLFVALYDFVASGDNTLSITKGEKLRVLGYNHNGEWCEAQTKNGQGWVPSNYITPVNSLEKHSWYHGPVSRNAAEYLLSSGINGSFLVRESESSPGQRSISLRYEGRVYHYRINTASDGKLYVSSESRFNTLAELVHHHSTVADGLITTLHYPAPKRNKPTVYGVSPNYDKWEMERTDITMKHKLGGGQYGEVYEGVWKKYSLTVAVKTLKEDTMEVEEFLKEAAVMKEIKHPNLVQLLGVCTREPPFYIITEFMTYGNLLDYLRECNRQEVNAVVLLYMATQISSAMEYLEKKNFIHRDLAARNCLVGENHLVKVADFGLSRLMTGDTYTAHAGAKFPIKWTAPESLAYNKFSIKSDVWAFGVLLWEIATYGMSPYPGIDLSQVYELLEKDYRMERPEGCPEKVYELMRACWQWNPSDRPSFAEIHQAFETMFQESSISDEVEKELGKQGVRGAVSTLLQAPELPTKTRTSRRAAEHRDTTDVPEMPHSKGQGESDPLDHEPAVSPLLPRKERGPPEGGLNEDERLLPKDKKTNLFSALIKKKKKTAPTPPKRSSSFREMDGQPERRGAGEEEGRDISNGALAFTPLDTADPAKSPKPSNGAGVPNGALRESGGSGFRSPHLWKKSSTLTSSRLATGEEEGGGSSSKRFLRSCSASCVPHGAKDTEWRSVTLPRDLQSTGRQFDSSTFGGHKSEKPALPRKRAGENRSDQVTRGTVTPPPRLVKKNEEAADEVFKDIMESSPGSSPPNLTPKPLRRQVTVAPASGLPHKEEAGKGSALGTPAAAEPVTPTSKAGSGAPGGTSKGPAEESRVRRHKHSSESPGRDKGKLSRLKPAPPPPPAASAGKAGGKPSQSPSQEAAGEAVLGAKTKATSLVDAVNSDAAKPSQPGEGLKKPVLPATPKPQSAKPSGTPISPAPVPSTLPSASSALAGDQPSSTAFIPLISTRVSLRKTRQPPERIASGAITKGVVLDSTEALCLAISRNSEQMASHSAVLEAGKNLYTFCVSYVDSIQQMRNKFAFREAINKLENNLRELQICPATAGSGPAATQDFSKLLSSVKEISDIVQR

[10] = target: TXK (Homo sapiens, UniProt P42681); assay: Protein kinase panel at 1 µM, TXK; assay type: biochemical
Sequence of TXK (P42681 whole entry): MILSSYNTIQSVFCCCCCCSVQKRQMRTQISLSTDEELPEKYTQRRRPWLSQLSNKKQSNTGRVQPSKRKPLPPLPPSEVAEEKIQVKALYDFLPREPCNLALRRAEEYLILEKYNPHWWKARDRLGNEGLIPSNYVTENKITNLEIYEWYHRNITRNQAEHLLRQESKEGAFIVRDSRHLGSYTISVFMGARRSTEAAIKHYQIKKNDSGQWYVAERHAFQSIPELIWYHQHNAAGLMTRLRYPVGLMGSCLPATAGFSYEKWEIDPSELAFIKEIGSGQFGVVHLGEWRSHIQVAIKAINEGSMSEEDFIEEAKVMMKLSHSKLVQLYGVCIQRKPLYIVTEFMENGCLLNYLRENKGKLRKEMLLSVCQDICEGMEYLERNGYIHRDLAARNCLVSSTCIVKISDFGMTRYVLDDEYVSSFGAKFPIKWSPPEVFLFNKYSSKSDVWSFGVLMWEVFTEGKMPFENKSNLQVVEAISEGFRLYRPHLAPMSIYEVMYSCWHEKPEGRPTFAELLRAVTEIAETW

[11] = mouse
[12] = system: B cell; assay: Cell viability assay (CellTiter-Blue), human B cells; assay type: cell-based; settings: read-out: IC50 (nM), growth of B cell
Procedure: Cells were seeded on 96-well plates (9,000 cells/well), cultured at 37 °C in 5% CO2 overnight, and incubated with different concentrations of compounds for 3 or 7 days. Then the cells were stained with CellTiter-Blue® reagent (Promega) for 4 h at 37 °C. The fluorescence signals were detected with a FlexStation 3, and the IC50 values of each compound were determined with GraFit software (Version 6.0).
CD19^+ B (>80% purity) and CD3^+ T (>90% purity) cells were purified with human B cell enrichment cocktail and human T cell enrichment cocktail (Stem Cell Technology), respectively. Cells were seeded on 12-well plates and incubated with different concentrations of BTK inhibitors for 1 h. B cells were stimulated with 50 µg/mL anti-human IgM F(ab′)2, and T cells were stimulated with 50 µg/mL anti-CD3/CD28 beads overnight. In the washout groups, the cell medium containing the indicated inhibitors was replaced with fresh medium before stimulation. Then cells were then incubated with anti-human CD69 for 1 h and analyzed with a Guava flow cytometer.

[13] = target: CSK (Homo sapiens, UniProt P41240); assay: Protein kinase panel at 1 µM, CSK; assay type: biochemical
[14] = target: T1, BTK; assay: Recovery of BTK activity after dilution (HTRF); assay type: biochemical; settings: BTK incubated with inhibitor for 2 h, mixture diluted
Procedure: In addition, after incubation of BTK with the inhibitors for 4 h, we performed liquid chromatography-tandem mass spectrometry (LC-MS/MS) to detect the abundance of the inhibitors.
(A) The compounds were incubated with BTK for 2 h, after which HTRF assays were performed with dilution of the mixture. The reactions were stopped at different time points. Data are shown as the mean ± SEM. (B) The content of the compounds was measured with LC-MS/MS after incubation with BTK for 4 h. Data are shown as the mean ± SEM (n = 3). Statistical analysis was performed with Student’s t-test (***P < 0.001). […] Cells were lysed and analyzed by Western blot and fluorescent gel scanning.

[15] = target: HER2 (Homo sapiens, UniProt P04626); assay: HTRF kinase assay, HER2
Sequence of HER2 (P04626 23-1255): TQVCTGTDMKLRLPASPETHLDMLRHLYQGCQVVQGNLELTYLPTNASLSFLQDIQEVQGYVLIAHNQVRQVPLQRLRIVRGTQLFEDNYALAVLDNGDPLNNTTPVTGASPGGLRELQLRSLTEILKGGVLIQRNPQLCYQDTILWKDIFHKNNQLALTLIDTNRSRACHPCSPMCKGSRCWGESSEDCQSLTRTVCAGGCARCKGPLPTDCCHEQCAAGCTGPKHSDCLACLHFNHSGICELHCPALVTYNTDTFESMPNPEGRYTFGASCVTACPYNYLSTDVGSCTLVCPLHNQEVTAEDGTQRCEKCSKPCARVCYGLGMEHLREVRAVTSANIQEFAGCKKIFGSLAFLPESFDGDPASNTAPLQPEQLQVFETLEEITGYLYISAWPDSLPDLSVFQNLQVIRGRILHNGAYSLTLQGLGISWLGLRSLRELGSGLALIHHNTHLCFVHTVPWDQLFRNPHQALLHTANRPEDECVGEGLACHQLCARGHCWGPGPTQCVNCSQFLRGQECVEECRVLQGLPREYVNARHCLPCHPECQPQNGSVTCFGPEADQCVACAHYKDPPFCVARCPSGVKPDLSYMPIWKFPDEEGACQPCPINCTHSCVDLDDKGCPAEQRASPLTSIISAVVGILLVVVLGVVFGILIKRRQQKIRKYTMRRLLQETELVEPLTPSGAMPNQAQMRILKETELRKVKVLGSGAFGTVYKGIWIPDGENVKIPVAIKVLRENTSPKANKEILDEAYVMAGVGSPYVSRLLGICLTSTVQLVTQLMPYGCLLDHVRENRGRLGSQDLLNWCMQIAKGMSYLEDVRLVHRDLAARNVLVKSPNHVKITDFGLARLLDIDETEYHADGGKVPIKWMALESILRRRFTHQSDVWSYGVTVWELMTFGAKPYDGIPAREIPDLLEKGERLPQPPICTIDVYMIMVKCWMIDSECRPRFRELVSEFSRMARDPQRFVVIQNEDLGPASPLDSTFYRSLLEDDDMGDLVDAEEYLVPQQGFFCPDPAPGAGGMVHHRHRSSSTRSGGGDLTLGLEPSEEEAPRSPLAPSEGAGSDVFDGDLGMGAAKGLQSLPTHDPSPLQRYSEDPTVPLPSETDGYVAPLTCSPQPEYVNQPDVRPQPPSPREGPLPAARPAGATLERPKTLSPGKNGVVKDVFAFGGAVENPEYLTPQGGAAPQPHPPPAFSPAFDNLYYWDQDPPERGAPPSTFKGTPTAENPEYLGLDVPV
Procedure: Homogeneous time-resolved fluorescence (HTRF) assays were performed with a HTRF® KinEASE™-TK kit (Trevigen).

[16] = rat, in vivo

Structure (SMILES): COC/C=C/C(=O)N1CC[C@@H](n2nc(-c3ccc(Oc4ccccc4)cc3)c(C(N)=O)c2N)C1 [SY-1530]
- Outcome ([1]; Dog 01, stage IVb, dose 20/35 mg/kg, treatment interval 21 d): SD/PR
- Outcome ([1]; Dog 02, stage IVa, dose 20/30/40 mg/kg, treatment interval 150 d): CR
- Outcome ([1]; Dog 04, stage IVa, dose 20/30/40 mg/kg, treatment interval 21 d): SD
- Outcome ([1]; Dog 06, stage IVa, dose 20/30/40 mg/kg, treatment interval 21 d): SD
- Outcome ([1]; Dog 07, stage IVa, dose 20/30 mg/kg, treatment interval 14 d): SD
- Outcome ([1]; Dog 08, stage IVa, dose 35 mg/kg, treatment interval 21 d): SD
- Outcome ([1]; Dog 09, stage IVa, dose 35 mg/kg, treatment interval 21 d): SD
- Outcome ([1]; Dog 10, stage IVa, dose 35 mg/kg, treatment interval 28 d): PR
- Outcome ([1]; Dog 11, stage IIIa, dose 35 mg/kg, treatment interval 14 d): PR
- Outcome ([1]; Dog 12, stage IVa, dose 35 mg/kg, treatment interval 21 d): SD
- Number of dogs with complete response ([1]; of 10 dogs): 1
- Number of dogs with partial response ([1]; of 10 dogs): 3
- Number of dogs with stable disease ([1]; of 10 dogs): 6
- Type of inhibition with respect to ATP [2]: non-ATP competitive inhibitor
- Inhibition (%), HCK [3]: 67%
- Inhibition (%), LCK [4]: 94%
- Plasma protein binding (%) [5]: 95.6%
- Inhibition (%), EPHA3 [6]: −2%
- Inhibition (%), RET [7]: 57%
- Plasma protein binding (%) [8]: 95.3%
- Inhibition (%), ABL1 [9]: 8%
- Inhibition (%), TXK [10]: 73%
- Plasma protein binding (%) [11]: 94.8%
- IC50 [12]: 1.05 nM
- Inhibition (%), CSK [13]: 84%
- Recovery of BTK activity after dilution [14]: did not recover
- Ratio, HER2 ([15]; IC50 SY-1530 over IC50 ibrutinib): > 2500
- IC50 ([15]; read-out: IC50 (nM), HER2, HTRF): > 10000 nM
- AUC0–∞ ([16]; iv, 5 mg/kg): 4.112 µg·h/mL
- AUC0–∞ ([16]; po, 30 mg/kg): 4.46 µg·h/mL
- Cmax ([16]; po, 30 mg/kg): 0.658 µg/mL
- F (%) ([16]; po, 30 mg/kg): 18.1%
- Tmax ([16]; po, 30 mg/kg): 3.33 h
- t½ ([16]; po, 30 mg/kg): 4.79 h
- AUC0–∞ ([16]; po, 100 mg/kg): 6.842 µg·h/mL
- Cmax ([16]; po, 100 mg/kg): 1.085 µg/mL
- F (%) ([16]; po, 100 mg/kg): 8.32%
- Tmax ([16]; po, 100 mg/kg): 1.75 h
- t½ ([16]; po, 100 mg/kg): 3.08 h
- AUC0–∞ ([16]; po, 300 mg/kg): 9.257 µg·h/mL
- Cmax ([16]; po, 300 mg/kg): 1.129 µg/mL
- F (%) ([16]; po, 300 mg/kg): 3.75%
- Tmax ([16]; po, 300 mg/kg): 5.25 h
- t½ ([16]; po, 300 mg/kg): 3.9 h
